The target of test [1] is Ribosomal protein S6 kinase alpha-5 (Homo sapiens) (UniProt O75582). The test can be described thus: Inhibition of human full length MSK1 expressed in baculovirus assessed as substrate phosphorylation using fluorescence-labelled peptides as substrate at 0.2 uM after 90 mins by microfluidic peptide phosphorylation assay.
Test [2] concerns the target Tyrosine-protein kinase Lck (Homo sapiens) (UniProt P06239). The test can be described thus: Inhibition of human full length LCK expressed in baculovirus assessed as substrate phosphorylation using fluorescence-labelled peptides as substrate at 0.2 uM after 90 mins by microfluidic peptide phosphorylation assay.
The target of test [3] is Tyrosine-protein kinase ABL1 (Homo sapiens) (UniProt P00519). The test can be described thus: Inhibition of human full-length ABL expressed in baculovirus assessed as substrate phosphorylation using fluorescence-labelled peptides as substrate at 0.2 uM after 90 mins by microfluidic peptide phosphorylation assay.
Tyrosine-protein kinase ABL1 (Homo sapiens), sequence (P00519 whole entry): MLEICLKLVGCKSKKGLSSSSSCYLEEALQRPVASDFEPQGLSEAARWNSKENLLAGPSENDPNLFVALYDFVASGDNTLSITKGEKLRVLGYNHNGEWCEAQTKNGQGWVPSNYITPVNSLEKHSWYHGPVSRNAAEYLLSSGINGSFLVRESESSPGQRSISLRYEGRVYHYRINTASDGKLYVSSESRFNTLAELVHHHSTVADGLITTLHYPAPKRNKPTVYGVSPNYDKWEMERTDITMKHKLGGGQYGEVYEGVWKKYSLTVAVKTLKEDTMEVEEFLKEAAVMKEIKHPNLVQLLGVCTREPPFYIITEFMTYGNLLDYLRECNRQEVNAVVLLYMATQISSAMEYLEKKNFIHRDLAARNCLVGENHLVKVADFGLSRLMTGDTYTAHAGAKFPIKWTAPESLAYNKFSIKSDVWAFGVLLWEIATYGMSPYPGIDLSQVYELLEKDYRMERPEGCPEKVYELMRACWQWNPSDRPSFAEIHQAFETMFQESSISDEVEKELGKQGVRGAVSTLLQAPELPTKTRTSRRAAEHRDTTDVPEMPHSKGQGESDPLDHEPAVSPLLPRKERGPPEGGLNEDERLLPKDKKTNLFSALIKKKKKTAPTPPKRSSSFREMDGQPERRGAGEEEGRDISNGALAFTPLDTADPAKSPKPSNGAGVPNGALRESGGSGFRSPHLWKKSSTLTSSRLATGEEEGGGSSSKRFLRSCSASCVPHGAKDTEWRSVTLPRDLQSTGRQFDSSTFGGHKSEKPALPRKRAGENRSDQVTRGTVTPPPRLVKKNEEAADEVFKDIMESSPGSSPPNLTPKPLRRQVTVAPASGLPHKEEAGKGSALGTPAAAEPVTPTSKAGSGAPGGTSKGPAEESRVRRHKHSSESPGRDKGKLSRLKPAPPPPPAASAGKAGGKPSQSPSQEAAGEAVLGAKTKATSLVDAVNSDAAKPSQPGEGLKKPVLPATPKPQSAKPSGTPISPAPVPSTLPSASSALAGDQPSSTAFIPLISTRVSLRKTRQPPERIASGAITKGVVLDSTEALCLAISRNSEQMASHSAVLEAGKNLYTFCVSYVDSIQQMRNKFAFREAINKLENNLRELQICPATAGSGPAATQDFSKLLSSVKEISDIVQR
Test [4] concerns the target T1, Serine/threonine-protein kinase Sgk2 (Homo sapiens) (UniProt Q9HBY8).
T1 sequence (whole entry): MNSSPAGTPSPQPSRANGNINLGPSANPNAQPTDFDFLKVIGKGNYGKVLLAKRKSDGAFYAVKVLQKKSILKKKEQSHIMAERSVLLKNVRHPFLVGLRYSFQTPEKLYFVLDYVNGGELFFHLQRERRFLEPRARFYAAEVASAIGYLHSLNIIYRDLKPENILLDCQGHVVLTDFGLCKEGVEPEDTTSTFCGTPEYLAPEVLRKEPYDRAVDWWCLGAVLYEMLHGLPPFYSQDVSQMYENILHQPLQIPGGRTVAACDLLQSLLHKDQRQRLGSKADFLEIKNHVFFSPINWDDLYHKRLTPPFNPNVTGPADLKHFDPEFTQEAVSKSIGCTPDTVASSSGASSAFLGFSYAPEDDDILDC
The test can be described thus: Inhibition of human full length SGK2 expressed in baculovirus assessed as substrate phosphorylation using fluorescence-labelled peptides as substrate at 0.2 uM after 90 mins by microfluidic peptide phosphorylation assay.

The target in test [5] is T2, cGMP-dependent protein kinase 1 (Homo sapiens) (UniProt Q13976).
T2 sequence (whole entry): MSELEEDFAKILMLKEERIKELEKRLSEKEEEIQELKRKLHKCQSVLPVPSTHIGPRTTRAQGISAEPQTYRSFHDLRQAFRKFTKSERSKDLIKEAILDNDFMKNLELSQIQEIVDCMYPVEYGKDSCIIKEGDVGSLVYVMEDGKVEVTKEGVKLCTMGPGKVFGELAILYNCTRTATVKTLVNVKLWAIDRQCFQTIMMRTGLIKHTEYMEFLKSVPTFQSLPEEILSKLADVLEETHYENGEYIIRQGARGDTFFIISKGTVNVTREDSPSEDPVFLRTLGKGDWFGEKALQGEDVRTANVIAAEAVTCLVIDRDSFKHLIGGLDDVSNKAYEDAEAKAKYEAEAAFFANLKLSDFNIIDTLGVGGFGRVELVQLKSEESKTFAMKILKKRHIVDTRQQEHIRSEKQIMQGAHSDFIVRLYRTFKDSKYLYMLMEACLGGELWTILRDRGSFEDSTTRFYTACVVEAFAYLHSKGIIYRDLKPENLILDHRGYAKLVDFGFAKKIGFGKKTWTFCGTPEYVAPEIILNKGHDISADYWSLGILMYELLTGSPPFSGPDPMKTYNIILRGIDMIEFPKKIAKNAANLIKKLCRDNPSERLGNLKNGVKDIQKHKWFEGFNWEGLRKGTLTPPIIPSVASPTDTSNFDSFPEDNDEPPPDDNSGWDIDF
The following applies: 0.1 uM.
Description: Inhibition of human full length PKG-1a expressed in baculovirus assessed as substrate phosphorylation using fluorescence-labelled peptides as substrate at 0.1 uM after 90 mins by microfluidic peptide phosphorylation assay

In test [6] the target is T3, Aurora kinase A (Homo sapiens) (UniProt O14965).
T3 sequence (whole entry): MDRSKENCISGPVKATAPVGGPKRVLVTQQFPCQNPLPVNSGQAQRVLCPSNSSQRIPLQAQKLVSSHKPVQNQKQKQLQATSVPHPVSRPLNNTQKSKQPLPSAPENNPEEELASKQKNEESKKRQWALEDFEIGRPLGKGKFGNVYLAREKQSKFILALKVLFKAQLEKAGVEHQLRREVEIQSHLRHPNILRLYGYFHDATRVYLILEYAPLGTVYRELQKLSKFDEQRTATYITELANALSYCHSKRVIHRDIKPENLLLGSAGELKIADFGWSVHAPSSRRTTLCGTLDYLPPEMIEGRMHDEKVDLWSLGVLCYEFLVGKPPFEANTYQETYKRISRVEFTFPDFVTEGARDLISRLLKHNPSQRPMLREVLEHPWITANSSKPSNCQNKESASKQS
The note with it: 0.1 uM.
Description: Inhibition of human full length AurA expressed in baculovirus assessed as substrate phosphorylation using fluorescence-labelled peptides as substrate at 0.1 uM after 90 mins by microfluidic peptide phosphorylation assay

Test [7] concerns the target Proto-oncogene tyrosine-protein kinase Src (Homo sapiens) (UniProt P12931). The test can be described thus: Inhibition of human full length SRC expressed in baculovirus assessed as substrate phosphorylation using fluorescence-labelled peptides as substrate at 420 uM after 90 mins by microfluidic peptide phosphorylation assay.
Test [8] addresses Fibroblast growth factor receptor 1 (Homo sapiens) (UniProt P11362). The test can be described thus: Inhibition of human FGFR1 catalytic domain expressed in baculovirus assessed as substrate phosphorylation using fluorescence-labelled peptides as substrate at 420 uM after 90 mins by microfluidic peptide phosphorylation assay.
The target of test [9] is Fibroblast growth factor receptor 2 (Homo sapiens) (UniProt P21802). The test can be described thus: Inhibition of human FGFR2 catalytic domain expressed in baculovirus assessed as substrate phosphorylation using fluorescence-labelled peptides as substrate at 9 uM after 90 mins by microfluidic peptide phosphorylation assay.
Fibroblast growth factor receptor 2 (Homo sapiens), sequence (P21802 22-821 limits assumed): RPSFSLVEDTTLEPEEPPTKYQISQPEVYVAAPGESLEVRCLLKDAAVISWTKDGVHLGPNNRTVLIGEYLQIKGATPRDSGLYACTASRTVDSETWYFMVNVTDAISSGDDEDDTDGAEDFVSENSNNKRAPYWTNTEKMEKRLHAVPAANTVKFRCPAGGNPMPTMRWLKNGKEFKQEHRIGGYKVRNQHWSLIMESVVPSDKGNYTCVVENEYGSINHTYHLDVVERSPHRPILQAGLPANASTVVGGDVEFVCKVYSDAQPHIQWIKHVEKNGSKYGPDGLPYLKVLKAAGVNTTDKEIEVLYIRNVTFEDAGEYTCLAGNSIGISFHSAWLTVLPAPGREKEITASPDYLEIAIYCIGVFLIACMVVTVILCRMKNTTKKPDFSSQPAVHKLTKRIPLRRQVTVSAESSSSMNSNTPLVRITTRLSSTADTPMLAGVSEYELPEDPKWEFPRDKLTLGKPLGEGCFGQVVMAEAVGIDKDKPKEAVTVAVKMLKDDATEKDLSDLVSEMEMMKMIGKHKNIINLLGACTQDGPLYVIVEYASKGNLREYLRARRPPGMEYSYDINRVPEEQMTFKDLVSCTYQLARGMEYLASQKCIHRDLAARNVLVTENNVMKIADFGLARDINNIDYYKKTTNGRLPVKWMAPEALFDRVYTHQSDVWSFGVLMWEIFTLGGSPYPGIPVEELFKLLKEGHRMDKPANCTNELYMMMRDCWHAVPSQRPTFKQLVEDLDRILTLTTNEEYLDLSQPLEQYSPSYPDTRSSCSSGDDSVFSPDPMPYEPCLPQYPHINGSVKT
For test [10], the target named is Ribosomal protein S6 kinase alpha-4 (Homo sapiens) (UniProt O75676). The test can be described thus: Inhibition of human full length MSK2 expressed in baculovirus assessed as substrate phosphorylation using fluorescence-labelled peptides as substrate at 1000 uM after 90 mins by microfluidic peptide phosphorylation assay.
For test [11], the target named is T4, Testis-specific serine/threonine-protein kinase 2 (Homo sapiens) (UniProt Q96PF2).
T4 sequence (whole entry): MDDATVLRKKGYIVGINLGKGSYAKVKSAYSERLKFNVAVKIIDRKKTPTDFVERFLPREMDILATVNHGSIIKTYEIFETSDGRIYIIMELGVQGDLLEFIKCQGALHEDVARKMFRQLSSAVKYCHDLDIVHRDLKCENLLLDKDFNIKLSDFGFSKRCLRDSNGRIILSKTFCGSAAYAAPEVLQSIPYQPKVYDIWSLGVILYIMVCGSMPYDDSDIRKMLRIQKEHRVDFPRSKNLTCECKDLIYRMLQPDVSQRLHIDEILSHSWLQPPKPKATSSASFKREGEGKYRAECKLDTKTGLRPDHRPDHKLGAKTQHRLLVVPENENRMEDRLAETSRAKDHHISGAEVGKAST
The test can be described thus: Inhibition of human full length TSSK2 expressed in baculovirus assessed as substrate phosphorylation using fluorescence-labelled peptides as substrate at 0.06 uM after 90 mins by microfluidic peptide phosphorylation assay.

The species named for another test is Homo sapiens. The test can be described thus: Inhibition of human full length PKA expressed in baculovirus assessed as substrate phosphorylation using fluorescence-labelled peptides as substrate at 2 uM after 90 mins by microfluidic peptide phosphorylation assay.
The target of test [12] is Fibroblast growth factor receptor 4 (Homo sapiens) (UniProt P22455). The test can be described thus: Inhibition of human FGFR4 catalytic domain expressed in baculovirus assessed as substrate phosphorylation using fluorescence-labelled peptides as substrate at 2 uM after 90 mins by microfluidic peptide phosphorylation assay.
Fibroblast growth factor receptor 4 (Homo sapiens), sequence (P22455 22-802 limits assumed): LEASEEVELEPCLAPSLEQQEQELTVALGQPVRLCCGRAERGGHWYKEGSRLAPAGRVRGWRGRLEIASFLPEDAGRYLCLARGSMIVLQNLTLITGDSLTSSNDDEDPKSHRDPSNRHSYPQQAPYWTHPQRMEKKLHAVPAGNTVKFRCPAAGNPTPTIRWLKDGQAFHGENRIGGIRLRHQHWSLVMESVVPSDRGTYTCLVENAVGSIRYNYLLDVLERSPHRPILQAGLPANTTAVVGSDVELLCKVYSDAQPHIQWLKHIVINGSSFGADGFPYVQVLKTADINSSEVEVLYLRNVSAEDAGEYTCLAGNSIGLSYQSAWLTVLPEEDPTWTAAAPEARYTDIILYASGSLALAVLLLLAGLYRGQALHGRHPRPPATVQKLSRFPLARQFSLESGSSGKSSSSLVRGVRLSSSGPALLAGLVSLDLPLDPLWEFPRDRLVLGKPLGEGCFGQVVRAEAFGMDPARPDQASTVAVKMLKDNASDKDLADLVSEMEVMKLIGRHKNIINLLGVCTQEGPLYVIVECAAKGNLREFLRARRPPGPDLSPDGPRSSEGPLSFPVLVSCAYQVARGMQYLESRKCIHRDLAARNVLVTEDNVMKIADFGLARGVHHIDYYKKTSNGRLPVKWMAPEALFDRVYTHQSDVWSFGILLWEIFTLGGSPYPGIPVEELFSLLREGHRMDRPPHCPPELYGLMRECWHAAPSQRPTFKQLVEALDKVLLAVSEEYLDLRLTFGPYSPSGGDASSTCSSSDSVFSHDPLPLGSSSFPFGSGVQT

The term inhibition denotes the percentage by which the read-out fell short of the control.

Tyrosine-protein kinase Lck (Homo sapiens), sequence (P06239 2-509 limits assumed): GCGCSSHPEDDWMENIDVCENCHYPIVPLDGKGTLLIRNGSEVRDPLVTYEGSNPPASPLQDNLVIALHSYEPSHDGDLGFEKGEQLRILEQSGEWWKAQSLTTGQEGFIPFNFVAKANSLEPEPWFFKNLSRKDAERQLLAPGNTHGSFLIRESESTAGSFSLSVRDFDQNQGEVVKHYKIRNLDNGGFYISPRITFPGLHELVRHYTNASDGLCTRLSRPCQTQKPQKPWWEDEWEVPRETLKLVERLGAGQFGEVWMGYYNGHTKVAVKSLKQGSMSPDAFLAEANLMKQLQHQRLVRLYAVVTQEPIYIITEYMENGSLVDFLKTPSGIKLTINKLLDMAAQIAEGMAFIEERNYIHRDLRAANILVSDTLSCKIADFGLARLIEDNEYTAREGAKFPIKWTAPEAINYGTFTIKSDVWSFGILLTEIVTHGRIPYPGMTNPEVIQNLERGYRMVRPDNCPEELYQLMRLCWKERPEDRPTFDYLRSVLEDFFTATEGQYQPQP
Fibroblast growth factor receptor 1 (Homo sapiens), sequence (P11362 22-822 limits assumed): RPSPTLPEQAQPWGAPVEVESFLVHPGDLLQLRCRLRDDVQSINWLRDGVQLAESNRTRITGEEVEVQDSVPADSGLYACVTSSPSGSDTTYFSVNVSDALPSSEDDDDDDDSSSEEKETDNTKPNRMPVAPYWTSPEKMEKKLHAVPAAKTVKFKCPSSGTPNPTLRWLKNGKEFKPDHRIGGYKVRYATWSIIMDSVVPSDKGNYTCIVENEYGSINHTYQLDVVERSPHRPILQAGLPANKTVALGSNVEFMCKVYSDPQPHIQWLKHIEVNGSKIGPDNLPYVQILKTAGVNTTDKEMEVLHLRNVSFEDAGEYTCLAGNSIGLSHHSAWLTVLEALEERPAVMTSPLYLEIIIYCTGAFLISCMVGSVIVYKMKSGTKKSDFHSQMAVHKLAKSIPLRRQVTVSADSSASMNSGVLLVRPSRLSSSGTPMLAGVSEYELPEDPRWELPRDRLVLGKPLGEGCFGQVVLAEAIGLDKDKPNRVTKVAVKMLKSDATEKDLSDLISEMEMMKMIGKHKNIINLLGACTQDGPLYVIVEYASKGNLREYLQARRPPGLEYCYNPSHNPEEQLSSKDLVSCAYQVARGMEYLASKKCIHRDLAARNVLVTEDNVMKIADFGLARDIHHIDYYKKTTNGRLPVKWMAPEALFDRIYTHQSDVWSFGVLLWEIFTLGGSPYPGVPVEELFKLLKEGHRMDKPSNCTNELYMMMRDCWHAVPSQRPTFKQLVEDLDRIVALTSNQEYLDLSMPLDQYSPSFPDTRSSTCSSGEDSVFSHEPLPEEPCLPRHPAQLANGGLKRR
Ribosomal protein S6 kinase alpha-5 (Homo sapiens), sequence (O75582 whole entry, looked up): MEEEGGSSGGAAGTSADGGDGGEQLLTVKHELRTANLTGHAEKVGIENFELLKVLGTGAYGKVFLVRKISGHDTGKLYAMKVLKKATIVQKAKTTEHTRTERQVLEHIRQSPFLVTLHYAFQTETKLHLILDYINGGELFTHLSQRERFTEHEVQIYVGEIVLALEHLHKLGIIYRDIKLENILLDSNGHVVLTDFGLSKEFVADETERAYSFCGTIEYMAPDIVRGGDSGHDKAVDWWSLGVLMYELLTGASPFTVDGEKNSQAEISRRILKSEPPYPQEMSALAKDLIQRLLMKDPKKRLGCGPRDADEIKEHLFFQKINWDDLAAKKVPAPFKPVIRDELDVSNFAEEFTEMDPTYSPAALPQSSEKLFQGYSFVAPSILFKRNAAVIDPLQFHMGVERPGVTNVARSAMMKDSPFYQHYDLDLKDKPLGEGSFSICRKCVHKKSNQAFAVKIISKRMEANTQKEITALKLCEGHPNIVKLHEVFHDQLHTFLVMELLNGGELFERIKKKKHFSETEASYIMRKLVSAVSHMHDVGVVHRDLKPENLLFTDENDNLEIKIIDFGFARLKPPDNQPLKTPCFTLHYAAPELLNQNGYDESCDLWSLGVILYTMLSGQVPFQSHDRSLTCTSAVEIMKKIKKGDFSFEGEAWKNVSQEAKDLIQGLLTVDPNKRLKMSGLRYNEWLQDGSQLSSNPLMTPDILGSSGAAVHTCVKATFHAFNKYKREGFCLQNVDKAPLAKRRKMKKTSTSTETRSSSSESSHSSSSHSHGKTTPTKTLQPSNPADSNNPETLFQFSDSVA

As for `Clc1ccc(C2(c3ccc(-c4ncnc5[nH]cnc45)cc3)CCNCC2)cc1`, the inhibition in [1] came to 90%; in [2] it was 35%; in [3] it was 0%; in test [4] it was 23.5%.
On to `C[C@H](CN(C)C)Oc1nc(Nc2cc3cccc(Cl)c3cn2)cnc1C#N`, for which the inhibition in [5] and in test [6] was 0% throughout.
Take `c1nc(N2CCOCC2)c2nc[nH]c2n1`: the inhibition was found to be 62.5% in [7] and 97% in test [8].
For the compound `NCC1CN(c2ncnc3[nH]c4cnccc4c23)CCO1` (stereo not drawn), the inhibition in test [9] came out at 30%.
As to `c1cnc2[nH]ccc2c1`, the inhibition in [10] was 81%.
As to `NC1(Cc2ccc(Cl)cc2)CCN(c2ncnc3[nH]ccc23)CC1`, the inhibition in [11] is 3%.
As for `NC1CCN(c2ncnc3[nH]ccc23)CC1`, the inhibition in the test filed under Homo sapiens was found to be 21%; in test [12], 0%.

Values taken from ChEMBL document CHEMBL3132769, “Fragment growing to retain or alter the selectivity of anchored kinase hinge-binding fragments” (Medchemcomm, 2014).
